According to patent publication US3954840A, “1,3,5,7-Naphthalenetetracarboxylic acids and process for preparation thereof” (Teijin Ltd., priority 1973, dated 1976):
“And” between values parts separate entries of the source, which are not always exact repeats. Equal values may be shown once. “Also recorded” adds a separate entry of the source. Read-outs that look alike come from different tables or passages of the source. Values belong to the molecule of their own block, whether it stands above or below them.

Assays:
[1] = Solubility of potassium naphthalenecarboxylates in pure water and in aqueous K4 XA solution (Table 1); format: physicochemical; conditions: 30% aqueous k4xa
From the text: Generally, alkali metal naphthalenecarboxylates, taken individually, are easily soluble in a sufficient amount of water.

[2] = Solubility of potassium salts in water/methanol mixtures at 30°C (Table 4); format: physicochemical
[3] = Solubility in words; format: physicochemical; conditions: for Solubility in aqueous medium: aqueous medium (acid precipitation / disproportionation)
[4] = 30°C
[5] = Thermal stability; format: physicochemical
[6] = Solubility of K4 XA in aqueous potassium carbonate (Table 3); format: physicochemical; conditions: water
[7] = Stability in water / acid; format: physicochemical

Compound: O=C([O-])c1ccc2cc(C(=O)[O-])ccc2c1.[K+].[K+]
Solubility in 100 g of a 30% by weight aqueous solution of tetrapotassium 1,3,5,7-naphthalenetetracarboxylate [1]: 1.0 g | Change of solubility with increasing methanol concentration [2]: decrease with higher methanol concentrations but not to such a great extent as in the case of K4 XA | Amount of solute dissolved in 100 g of a mixture of water and methanol ([2]; 30°C, methanol 40 wt. %): 8.5 g | Amount of solute dissolved in 100 g of a mixture of water and methanol ([2]; 30°C, methanol 60 wt. %): 3.6 g | Amount of solute dissolved in 100 g of a mixture of water and methanol ([2]; 30°C, methanol 80 wt. %): 0.88 g | Amount of solute dissolved in 100 g of a mixture of water and methanol ([2]; 30°C, methanol 100 wt. %): 0.17 g | Amount of solute dissolved in 100 g of a mixture of water and methanol ([2]; water): 32 g

Compound: O=C(O)c1cc(C(=O)O)c2cc(C(=O)O)cc(C(=O)[O-])c2c1.[K+]
Solubility in water [3]: difficultly soluble

Compound: O=C([O-])c1ccc2ccccc2c1.[K+]
Solubility in 100 g of a 30% by weight aqueous solution of tetrapotassium 1,3,5,7-naphthalenetetracarboxylate [1]: 0.3 g | Change of solubility with increasing methanol concentration [2]: decrease with higher methanol concentrations but not to such a great extent as in the case of K4 XA | Amount of solute dissolved in 100 g of a mixture of water and methanol ([2]; 30°C, methanol 40 wt. %): 45 g | Amount of solute dissolved in 100 g of a mixture of water and methanol ([2]; 30°C, methanol 60 wt. %): 30 g | Amount of solute dissolved in 100 g of a mixture of water and methanol ([2]; 30°C, methanol 80 wt. %): 19 g | Amount of solute dissolved in 100 g of a mixture of water and methanol ([2]; 30°C, methanol 100 wt. %): 9.3 g | Amount of solute dissolved in 100 g of a mixture of water and methanol ([2]; water): 80 g

Compound: O=C([O-])c1cc(C(=O)[O-])c2cc(C(=O)[O-])cc(C(=O)[O-])c2c1.[K+].[K+].[K+].[K+]
Amount of tetrapotassium salt dissolved in 100 g of a mixture of water and methanol ([4]; methanol 40%, K2CO3 0%): 9.0 g | Amount of tetrapotassium salt dissolved in 100 g of a mixture of water and methanol ([4]; methanol 40%, K2CO3 10%): 3.8 g | Amount of tetrapotassium salt dissolved in 100 g of a mixture of water and methanol ([4]; methanol 40%, K2CO3 20%): 1.0 g | Amount of tetrapotassium salt dissolved in 100 g of a mixture of water and methanol ([4]; methanol 40%, K2CO3 30%): 0.2 g | Amount of tetrapotassium salt dissolved in 100 g of a mixture of water and methanol ([4]; methanol 60%, K2CO3 0%): 1.7 g | Amount of tetrapotassium salt dissolved in 100 g of a mixture of water and methanol ([4]; methanol 60%, K2CO3 10%): 0.1 g | Amount of tetrapotassium salt dissolved in 100 g of a mixture of water and methanol ([4]; methanol 80%, K2CO3 0%): 0.13 g | Amount of tetrapotassium salt dissolved in 100 g of a mixture of water and methanol ([4]; methanol 80%, K2CO3 3%): < 0.01 g | Thermal stability [5]: almost no change occurred, but the product was stable | Solubility (grams of the potassium salt dissolved in 100 g of solvent) [6]: 57.0 g and 48.8 g | Change of solubility with increasing methanol concentration [2]: decreases abruptly | Solubility in methanol [3]: slightly soluble | Solubility in water [3]: very high; also recorded: Readily soluble

Compound: O=C([O-])c1cc(C(=O)[O-])c2cc(C(=O)O)cc(C(=O)[O-])c2c1.[K+].[K+].[K+]
Stability in water [7]: Easily decomposable

Compound: O=C(O)c1cc(C(=O)O)c2cc(C(=O)O)cc(C(=O)O)c2c1 [1,3,5,7-naphthalenetetracarboxylic acid]
Thermal stability ([5]; high temperatures (melting point above 300°C)): decomposed | Solubility in alcohols ([3]; alcohols): Insoluble | Solubility in aqueous medium [3]: very low solubility | Solubility in aqueous medium ([3]; listed as H4 XA): almost insoluble | Solubility in benzene [3]: Insoluble | Solubility in ether(s) [3]: Insoluble | Solubility in various solvents ([3]; various solvents): very low solubility | Solubility in water ([3]; water): Insoluble

Compound: O.O.O=C([O-])c1cc(C(=O)[O-])c2cc(C(=O)[O-])cc(C(=O)[O-])c2c1.[K+].[K+].[K+].[K+] [Tetrapotassium 1,3,5,7-naphthalenetetracarboxylate dihydrate]
Amount of solute dissolved in 100 g of a mixture of water and methanol ([2]; 30°C, methanol 0 wt. %): 45 g | Amount of solute dissolved in 100 g of a mixture of water and methanol ([2]; 30°C, methanol 40 wt. %): 9 g | Amount of solute dissolved in 100 g of a mixture of water and methanol ([2]; 30°C, methanol 60 wt. %): 1.7 g | Amount of solute dissolved in 100 g of a mixture of water and methanol ([2]; 30°C, methanol 80 wt. %): 0.13 g | Amount of solute dissolved in 100 g of a mixture of water and methanol ([2]; 30°C, methanol 100 wt. %): 0.30 g

Solubility in chloroform [3]: Readily soluble | Solubility in ether(s) [3]: Readily soluble | Solubility in hot ethanol ([3]; hot ethanol): Readily soluble
Compound: CCCCOC(=O)c1cc(C(=O)OCCCC)c2cc(C(=O)OCCCC)cc(C(=O)OCCCC)c2c1 [tetra-n-butyl 1,3,5,7-naphthalenetetracarboxylate]

Solubility in acetone ([3]; acetone): Readily soluble | Solubility in benzene [3]: Readily soluble | Solubility in chloroform [3]: Readily soluble | Solubility in ether(s) [3]: Readily soluble
Compound: CCCCCCCCCCCCOC(=O)c1cc(C(=O)OCCCCCCCCCCCC)c2cc(C(=O)OCCCCCCCCCCCC)cc(C(=O)OCCCCCCCCCCCC)c2c1 [tetra-n-dodecyl 1,3,5,7-naphthalenetetracarboxylate]

Compound: O=C([O-])c1cc(C(=O)[O-])c2cc(C(=O)[O-])cc(C(=O)[O-])c2c1.[Na+].[Na+].[Na+].[Na+] [tetrasodium 1,3,5,7-naphthalenetetracarboxylate]
Thermal stability ([5]; around 400°C): stable
